Source: US20140079836A1, “METHODS AND COMPOSITIONS FOR ALTERING HEALTH, WELLBEING, AND LIFESPAN” (LifeSpan Extension, LLC, priority 2008, published 2014)

Tested on: Drosophila Melanogaster
Assay: Drosophila survival/longevity after antioxidant media
Assay type: in vivo
Procedure: Drosophila cultures: A wingless variant of Drosophila Melanogaster was purchased from Carolina Biological Supply. These flies were fed nutrient media (Formula 4-24) and experimental flies were collected within 18 hours after hatching to ensure the females were virgin. Culture media: Flies were given a combination of the following: 1) Formula 4-24 without blue coloring for breeding and post exposure to antioxidants. […] 4) 20% sucrose solution on filter paper following AOX incubation to serve as a low nutrient media and known lifespan shortening agent. […] The flies remain in the antioxidant media for 12 days. […] All the flies are examined daily and media changed as required until all the flies have died. The date (post 12 day antioxidant incubation) is recorded. Lifespan results: The cumulative average lifespan of all flies for each group are then computed and compared against the cumulative average of the control (untreated) flies to determine if the Antioxidants increase lifespan. The average lifespan increase is separated by sex as well as combined for both sexes. This lifespan extension is expressed as a percent increase or decrease over control values. Culture media: […] Experimental phase: […] Lifespan results: The cumulative average lifespan of all flies for each group are then computed and compared against the cumulative average of the control (untreated) flies to determine if the antioxidants increase lifespan. The average lifespan increase is separated by sex as well as combined for both sexes.

[1] = 0.01% antioxidant in media from hatching, antioxidant alone
[2] = 0.1% antioxidant in media from hatching, antioxidant alone
[3] = 1% antioxidant in media from hatching, antioxidant alone
[4] = 1% antioxidant media 12 days, then 20% Sucrose
[5] = 1% antioxidant media 12 days, then 20% Sucrose, vs 20% Sucrose
[6] = 1% antioxidant media 12 days, then H2O2 media
[7] = 1% antioxidant media 12 days, then H2O2 media, vs H2O2

Which “average lifespan, Average of Both” value [1] does the source give for `COC1=C(OC)C(=O)C(CCCCCCCCCCO)=C(C)C1=O` [Idebenone, 6-(10-hydroxydecyl)-2,3-dimethoxy-5-methyl-1,4-benzoquin-one] here?
Its value is 23.4 days.

And the “average lifespan, FEMALE” value [1]?
Its value is 23.4 days.

What about the “average lifespan, Average of Both” value [2] of the same compound?
Its value is 10.2 days.

What about the “average lifespan, FEMALE” value [2] of the same compound?
Its value is 10.2 days.

What about the “average lifespan, Average of Both” value [3] of the same compound?
Its value is 10 days.

And the “average lifespan, FEMALE” value [3]?
The value was 12.4 days.

And the “average lifespan, MALE” value [3]?
Its value is 8.1 days.

What about the “average lifespan, Average of Both” value [4] of the same compound?
Its value is 11.89 days.

What about the “average lifespan, FEMALE” value [4] of the same compound?
Its value is 11.7 days.

And the “average lifespan, MALE” value [4]?
The value was 12.11 days.

And the “% Change of lifespan over control, Average of Both” value [5]?
Its value is “+5%”.

And the “% Change of lifespan over control, FEMALE” value [5]?
The value was −4%.

What about the “% Change of lifespan over control, MALE” value [5] of the same compound?
Its value is “+24%”.

What about the “average lifespan, Average of Both” value [6] of the same compound?
The value was 5.75 days.

And the “average lifespan, FEMALE” value [6]?
The value was 5.50 days.

And the “average lifespan, MALE” value [6]?
The value was 5.32 days.

What about the “% Change of lifespan over control, Average of Both” value [7] of the same compound?
Its value is “+8%”.

What about the “% Change of lifespan over control, FEMALE” value [7] of the same compound?
Its value is −7%.

And the “% Change of lifespan over control, MALE” value [7]?
The value was “+8%”.
